Reference: patent publication US8980924B2, “Non-retinoid RBP4 antagonist for treatment of age-related macular degeneration and stargardt disease” (The Trustees of Columbia University in the City of New York, priority 2010, dated 2015)

How the values were obtained:
serum RBP4 = target: T1, serum RBP4 (Mus musculus, UniProt Q00724); test: Serum RBP4 level in treated mice; assay type: in vivo; conditions: orally dosed for 3 weeks at 30 mg/kg; wild-type and Abca4−/− mice; FIG. 11
T1 construct: from tissue; host or cells: mouse serum (in vivo, oral dosing)
Description: (§1) The Abca4−/− mouse model manifests accelerated accumulation of lipofuscin in the RPE and is considered a preclinical efficacy model for a drug reducing lipofuscin accumulation. […] There was approximately a 70% reduction in the serum RBP4 level in treated animals (FIG. 11). Additionally, the inventors discovered that that the levels of A2E/isoA2E were reduced by approximately 50% in treated mice (FIG. 12).

ERG b-wave = ERG b-wave after photobleaching; assay type: in vivo; conditions: FIG. 10
insulin sensitivity = conditions: mouse diabetes models; cited from earlier work
[1] = tested on: bisretinoids (A2E/isoA2E, A2-DHP-PE, atRAL di-PE); test: Bisretinoid levels in eyes of treated mice (tissue extraction and HPLC); assay type: in vivo; conditions: orally dosed for 3 weeks at 30 mg/kg
Description: as §1
Abca4/Abcr null mutant mice (albino) homozygous for Rpe65-Leu450 are bred genotyped and housed. Posterior eyecups of mice and RPE/choroids harvested from human donor eyes (National Disease Research Interchange, Philadelphia Pa.) are homogenized in phosphate buffered saline (PBS) using a glass tissue grinder and extracted in chloroform/methanol (2:1). […] An Alliance system (Waters, Corp, Milford, Mass.) equipped with 2695 Separation Module, 2996 Photodiode Array Detector, a 2475 Multi λ Fluorescence Detector and operating with Empower® software is used for HPLC analysis. […] HPLC quantification is carried out using the Empower® software to determine peak areas. […] Molar quantity per murine eye is determined using calibration curves constructed from known concentrations of purified external standards and by normalizing to the ratio of the HPLC injection volume (10 μL) versus total extract volume.

RBP4-TTR interaction = target: T2, RBP4-TTR interaction (Homo sapiens, UniProt P02753); test: TR-FRET (HTRF) RBP4-TTR interaction assay, agonist mode; assay type: biochemical; conditions: without retinol, FIG. 8
T2 construct: made in house; host or cells: E. coli
Description: TR-FRET (Time-Resolved Fluorescence Resonance Energy Transfer) is an assay format that can be used in characterization of compounds affecting protein-protein interactions (31-33). […] In the presence of retinol, RBP4-TTR interaction induces FRET that can be registered as increased ratio of […] fluorescence signals. Binding of a desired RBP4 antagonist displaces retinol and induces hindrance for RBP4-TTR interaction resulting in the decreased FRET signal (FIG. 7).
The inventors developed an assay using E. coli-expressed MBP-tagged RBP4 and commercially available TTR labeled directly with Eu3+ cryptate. In addition to MBP-RBP4 and Eu3+ (K)-TTR, a detector reagent anti-MBP-d2 was present in the mix. The assay was first optimized in the agonist mode; sensitivity and dynamic range of the assay was […] in respect to RBP4, TTR and detection reagent concentrations.

A2E production = conditions: Abca4−/− mice, reference 11; cited from earlier work
serum RBP4 and retinol = serum RBP4 and retinol (Rattus norvegicus, UniProt P04916); conditions: reference 15; cited from earlier work

| Structure (SMILES) | reduction in the serum RBP4 level (serum RBP4) | effect on ERG b-wave after photobleaching (ERG b-wave) | effect on insulin sensitivity (insulin sensitivity) | levels of A2-DHP-PE and atRAL di-PE [1] | induction of RBP4-TTR interaction (RBP4-TTR interaction) | effect on A2E production (A2E production) | effect on serum RBP4 and retinol (serum RBP4 and retinol) |
| --- | --- | --- | --- | --- | --- | --- | --- |
| O=C(O)c1ccccc1NC(=O)N1CCC(c2ccccc2C(F)(F)F)CC1 [Compound 1, 2(4-(2-(trifluoromethyl)phenyl)piperidine-1-carboxamido)benzoic acid] | ~70% | does not reduce ERG b-wave | did not improve insulin sensitivity | also reduced | did not induce RBP4-TTR interaction |  |  |
| CC1=C(/C=C/C(C)=C/C=C/C(C)=C/C(=O)Nc2ccc(O)cc2)C(C)(C)CCC1 [fenretinide, N-(4-hydroxy-phenyl)retinamide] |  |  |  |  | did not induce RBP4-TTR interaction | reduced A2E production | reduce serum RBP4 and retinol |
